In ChEMBL document CHEMBL1201862, “PubChem BioAssay data set” (2004):
Several values for one entry are separate records, joined by “and”; a condition that tells them apart may be missing. Equal values may be shown once. Activity calls are given as the source filed them.

Assays:
[1] = biological target: T1, RNA-binding protein pos-1 (Caenorhabditis elegans, UniProt G5EF15); assay: inhibitors of POS-1/mex-3 RNA binding, dose response, biochemical, fluorescence polarization (AID 1964);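 further: purified POS-1 fused to maltose binding protein made in E. coli; potency of compounds blocking POS-1 binding to fluorescent RNA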
T1 sequence (G5EF15 whole entry): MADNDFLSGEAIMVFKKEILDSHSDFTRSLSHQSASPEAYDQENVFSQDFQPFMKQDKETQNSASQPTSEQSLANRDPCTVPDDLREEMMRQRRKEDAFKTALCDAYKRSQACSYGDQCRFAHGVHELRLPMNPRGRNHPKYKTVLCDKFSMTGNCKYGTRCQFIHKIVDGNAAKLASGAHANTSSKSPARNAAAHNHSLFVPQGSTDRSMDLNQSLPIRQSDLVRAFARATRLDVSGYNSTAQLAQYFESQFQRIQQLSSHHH

[2] = biological target: T2, Zinc finger protein mex-5 (Caenorhabditis elegans, UniProt Q9XUB2); assay: MEX-5/TCR-2 RNA interaction inhibitors, dose response, biochemical, C. elegans, fluorescence polarization (AID 1960)
T2 sequence (Q9XUB2 whole entry): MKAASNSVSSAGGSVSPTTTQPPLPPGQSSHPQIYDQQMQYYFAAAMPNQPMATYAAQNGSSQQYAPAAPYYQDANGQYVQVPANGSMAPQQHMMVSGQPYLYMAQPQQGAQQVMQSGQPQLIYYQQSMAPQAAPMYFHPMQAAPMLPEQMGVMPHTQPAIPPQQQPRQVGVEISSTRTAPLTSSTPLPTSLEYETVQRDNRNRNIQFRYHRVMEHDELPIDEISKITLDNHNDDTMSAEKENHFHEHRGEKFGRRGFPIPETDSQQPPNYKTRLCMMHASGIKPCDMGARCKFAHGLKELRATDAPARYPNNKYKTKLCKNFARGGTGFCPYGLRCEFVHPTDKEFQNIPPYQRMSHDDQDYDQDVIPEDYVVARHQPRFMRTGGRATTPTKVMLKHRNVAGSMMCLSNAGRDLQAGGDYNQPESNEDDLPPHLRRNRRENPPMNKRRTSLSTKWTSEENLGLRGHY

[3] = biological target: T3, Cytochrome P450 1A2 (Homo sapiens, UniProt P05177);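 further: PubChem cytochrome P450 panel assay, CYP1A2 panel member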
T3 sequence (P05177 whole entry): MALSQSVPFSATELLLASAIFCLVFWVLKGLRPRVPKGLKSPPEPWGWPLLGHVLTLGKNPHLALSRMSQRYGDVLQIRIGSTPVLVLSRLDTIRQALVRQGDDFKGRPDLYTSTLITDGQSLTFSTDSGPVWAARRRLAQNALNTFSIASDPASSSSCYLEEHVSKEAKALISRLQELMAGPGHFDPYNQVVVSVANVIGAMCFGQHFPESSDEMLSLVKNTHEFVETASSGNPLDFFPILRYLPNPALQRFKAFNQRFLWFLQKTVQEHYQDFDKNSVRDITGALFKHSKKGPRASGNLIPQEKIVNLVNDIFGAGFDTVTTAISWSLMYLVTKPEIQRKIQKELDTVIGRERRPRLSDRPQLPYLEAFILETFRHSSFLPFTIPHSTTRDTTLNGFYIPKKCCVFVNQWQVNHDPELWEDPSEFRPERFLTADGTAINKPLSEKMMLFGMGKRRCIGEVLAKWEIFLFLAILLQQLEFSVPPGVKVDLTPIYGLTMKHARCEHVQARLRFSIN

[4] = biological target: Cytochrome P450 2D6 (Homo sapiens, UniProt P10635);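 further: CYP2D6 member of a cytochrome P450 panel assay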
[5] = biological target: Cytochrome P450 2C9 (Homo sapiens, UniProt P11712)
Sequence of Cytochrome P450 2C9 (P11712 whole entry): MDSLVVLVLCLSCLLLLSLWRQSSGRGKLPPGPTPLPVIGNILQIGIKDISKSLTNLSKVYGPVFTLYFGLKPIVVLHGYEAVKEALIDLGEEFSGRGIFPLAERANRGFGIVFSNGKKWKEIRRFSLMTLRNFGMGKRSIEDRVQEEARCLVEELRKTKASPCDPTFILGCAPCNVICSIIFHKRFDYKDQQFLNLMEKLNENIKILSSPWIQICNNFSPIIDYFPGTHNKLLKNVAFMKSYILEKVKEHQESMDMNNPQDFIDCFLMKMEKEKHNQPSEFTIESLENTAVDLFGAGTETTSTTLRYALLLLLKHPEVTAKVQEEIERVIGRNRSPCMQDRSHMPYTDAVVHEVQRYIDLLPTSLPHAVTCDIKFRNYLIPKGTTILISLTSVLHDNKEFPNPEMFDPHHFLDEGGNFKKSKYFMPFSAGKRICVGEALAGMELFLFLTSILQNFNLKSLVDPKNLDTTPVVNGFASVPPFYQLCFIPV

Sequence of Cytochrome P450 2D6 (P10635 whole entry): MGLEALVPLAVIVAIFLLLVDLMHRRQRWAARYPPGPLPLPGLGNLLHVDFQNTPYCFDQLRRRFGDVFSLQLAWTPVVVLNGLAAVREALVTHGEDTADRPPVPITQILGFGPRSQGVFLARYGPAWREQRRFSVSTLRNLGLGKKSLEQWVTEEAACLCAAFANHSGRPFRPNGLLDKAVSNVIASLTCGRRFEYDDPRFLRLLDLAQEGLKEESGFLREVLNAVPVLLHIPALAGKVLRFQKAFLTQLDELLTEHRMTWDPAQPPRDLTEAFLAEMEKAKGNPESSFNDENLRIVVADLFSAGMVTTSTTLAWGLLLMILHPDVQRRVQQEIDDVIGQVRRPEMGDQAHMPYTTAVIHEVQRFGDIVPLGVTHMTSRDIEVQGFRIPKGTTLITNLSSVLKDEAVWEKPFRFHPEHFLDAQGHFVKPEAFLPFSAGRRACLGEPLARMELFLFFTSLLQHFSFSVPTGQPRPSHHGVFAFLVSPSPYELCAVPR

| Structure (SMILES) | EC50 [1] | EC50 [2] | AC50 [4] | AC50 [5] | other results |
| --- | --- | --- | --- | --- | --- |
| O=C(O)c1cc(Cl)c2c(c1)[C@@H]1C=CC[C@@H]1[C@H](c1ccc(S(=O)(=O)N3CCOCC3)cc1)N2 | > 300 µM (not active) | 29.7 µM (active) | – | – | – |
| CC[C@H](C)C(=O)O[C@H]1CCC=C2C=C[C@H](C)[C@H](CC[C@@H]3C[C@H](O)CC(=O)O3)[C@H]21 | – | – | 31.6 µM (inconclusive) | – | AC50 [3]: 31.6 µM (inconclusive) |
| O=C(Cc1ccccc1)NNC(=O)c1cnccn1 | > 300 µM (not active) | 41.4 µM (active) | – | – | – |
| COc1ccccc1-c1cc(Nc2ccc(F)cc2)ncn1 | – | – | 39.8 µM (inconclusive) | – | – |
| C/C(=N/Nc1ccc2ccccc2n1)c1ccccc1O | – | – | – | 2.51 µM (inconclusive) | – |
| Cc1cc(NCc2ccccn2)ccc1Br | – | – | – | 7.08 µM (inconclusive) | – |
| N#Cc1ccccc1-c1ccc2ncnc(NCCN3CCOCC3)c2c1 | – | – | 39.8 µM (inconclusive) | – | – |
| Cc1ccccc1CSCCN=C(S)Nc1ccccc1 | > 300 µM (not active) | > 300 µM (not active) | – | – | – |
| CCN1C=CC2=C(C#N)C(N)C(C#N)(C#N)C(c3ccccc3C(F)(F)F)C2C1 (configuration not stated) | 260 µM (inconclusive) | > 300 µM (not active) | – | – | – |
| CCCCCC(=O)Nc1cccc(-c2nc3ncccc3o2)c1 | – | – | 22.4 µM (inconclusive) | – | – |
| Cc1ccccc1OCCN=C(S)Nc1ccccc1 | – | – | – | 10 µM (inconclusive) | AC50 [3]: 3.16 µM (inconclusive) |
| CC1(CCl)[N+]([O-])=C2CCCCC2=[N+]1[O-] | > 300 µM (not active) | 121 µM (active) | – | – | – |
| Cc1c(NC(=O)C(Sc2ccccc2)c2ccccc2)cccc1[N+](=O)[O-] (configuration not stated) | – | – | 3.16 µM (inconclusive) | – | – |
| O=C1c2ccccc2C(=O)N1CCCCN(C(=O)c1ccc([N+](=O)[O-])cc1)c1ccc(Cl)cc1 | – | – | 15.8 µM (inconclusive) | – | – |
| c1ccc(CN2CCC3(CCNCC3)CC2)cc1 | – | – | – | 25.1 µM (inconclusive) | – |
| CSCC(C)N1CCC(N2CCC(C(=O)NCc3ccccn3)CC2)CC1 (configuration not stated) | 161 µM (active) | > 300 µM (not active) | – | – | – |
| CCCC(CCC)C(=O)NNc1cc(O)c2c(=O)n(C)c(=O)n(C)c2n1 | – | – | – | 0.178 µM (inconclusive) | – |
| CCc1c2c(nc3cccc(SC)c13)COC2 | – | – | 39.8 µM (inconclusive) | – | – |
| O=S(=O)(Nc1cccnc1Cl)c1ccc2c(c1)OCCO2 | – | – | – | 15.8 µM (inconclusive) | – |
| O=C(C/C=N/OCc1ccc(Cl)cc1Cl)c1ccc(Cl)cc1 | – | – | 17.8 µM (inconclusive) | 17.8 µM (inconclusive) | – |
| CC1C(=O)NN=C1C(=O)N/N=C/c1ccco1 (configuration not stated) | > 300 µM (not active) | > 300 µM (not active) | – | – | – |
| COc1ccc2c(c1OC)C(=O)O[C@H]2[C@H]1c2cc3c(cc2CCN1C)OCO3 [1R,9S-HYDRASTINE] | – | – | – | 1.58 nM (inconclusive) and 15.8 µM (inconclusive) | – |
